The text below walks through data of patent publication US20240270715A1, “INHIBITORS OF TRANSGLUTAMINASES” (ZEDIRA GMBH, priority 2021, published 2024).

Data set [1] is described as follows: Caco-2 permeability assay (CacoReady kit). It counts as in vitro ADME. Conditions: human. An outline of the steps:
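Papp values come from Caco-2 barrier studies intended to predict oral bioavailability; the manufacturer's procedure for the ready-made kit was followed.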

Data set [2] concerns the target T1, recombinant human transglutaminase 2 (Homo sapiens, UniProt P21980).
T1 sequence (P21980 1-687): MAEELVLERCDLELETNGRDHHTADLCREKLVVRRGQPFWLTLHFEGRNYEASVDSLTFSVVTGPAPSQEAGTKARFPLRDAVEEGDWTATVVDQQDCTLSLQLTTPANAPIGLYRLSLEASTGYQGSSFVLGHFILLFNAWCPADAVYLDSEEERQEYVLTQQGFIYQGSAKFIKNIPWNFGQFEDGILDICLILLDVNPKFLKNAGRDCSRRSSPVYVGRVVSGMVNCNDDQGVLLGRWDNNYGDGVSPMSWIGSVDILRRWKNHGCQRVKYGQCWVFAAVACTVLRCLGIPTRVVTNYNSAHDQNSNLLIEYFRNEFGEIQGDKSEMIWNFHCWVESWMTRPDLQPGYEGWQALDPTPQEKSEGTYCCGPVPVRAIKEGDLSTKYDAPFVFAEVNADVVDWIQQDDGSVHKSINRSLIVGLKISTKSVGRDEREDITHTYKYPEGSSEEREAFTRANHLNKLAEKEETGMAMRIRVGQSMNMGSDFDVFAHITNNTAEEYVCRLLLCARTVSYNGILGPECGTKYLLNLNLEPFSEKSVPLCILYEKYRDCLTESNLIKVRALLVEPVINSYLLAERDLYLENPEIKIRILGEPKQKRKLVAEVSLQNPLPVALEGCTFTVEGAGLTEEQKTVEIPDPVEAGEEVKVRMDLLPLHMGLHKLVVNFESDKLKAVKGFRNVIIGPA
As to the kind of experiment: Transglutaminase assay: incorporation of dansylcadaverine into dimethylcasein (DCC-assay). Conditions: recombinant human TG2 10 nM, dansylcadaverine/dimethylcasein; read-out: IC50 TG2. Format: biochemical. An outline of the steps:
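Recombinant human TG2 (10 nM final) incorporates dansylcadaverine (16.7 μM) into N,N-dimethylcasein (4 μM) in Tris-HCl buffer, pH 8.0, with 10 mM CaCl2 and 10 mM glutathione. Fluorescence (λex 330, λem 500 nm) followed 30 min. The slope between 20–30 min gives activity versus DMSO control, and IC50 comes from the concentration–activity plot.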

The nature of data set [3]: Log D by shake flask method (octanol / PBS pH 7.4, HPLC). Format: physicochemical. Conditions: octanol / PBS pH 7.4, shake flask; read-out: logD. A digest of the protocol: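 Shake-flask partitioning of compound between octanol and PBS at pH 7.4, with phase concentrations quantified by HPLC. The value reported is Log D.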

Molecules are shown by their SMILES. A value given as a limit tells only on which side of the number the result lay.

On to `CCNC(=O)C(=O)CC[C@H](NC(=O)c1coc2ccccc12)C(=O)Nc1cccn(CC(=O)N[C@H]2C[C@H]3C[C@@H]([C@@H]2C)C3(C)C)c1=O` [Compound I-77, (S)-2-(benzofuran-3-carboxamido)-N6-ethyl-5-oxo-N1-(2-oxo-1-(2-oxo-2-((1S,2S,3S,5R)-2,6,6-trimethylbicyclo[3.1.1]heptan-3-ylamino)ethyl)-1,2-dihydropyridin-3-yl)hexanediamide], for which the Papp in data set [1] fell in the range of 1 to 10 ×10⁻⁶ cm/s. Besides, the IC50 in data set [2] lay within 150 to 600 nM. Moreover, the logD in data set [3] was in the range of 3 to 5.

As for `CCNC(=O)C(=O)CC[C@H](NC(=O)c1cncc(C(=O)O)c1)C(=O)Nc1cccn(CC(=O)NC(C)C23CC4CC(CC(C4)C2)C3)c1=O` (stereo partly drawn) [Compound I-66], the Papp in data set [1] is below 1 ×10⁻⁶ cm/s. In data set [2], the IC50 was 150 to 600 nM. In addition, in data set [3], the logD was in the range of 3 to 5.

On to `CCNC(=O)C(=O)CC[C@H](NC(=O)c1[nH]c2ccccc2c1C)C(=O)Nc1cccn(CC(=O)NC2C3CC4CC(C3)CC2C4)c1=O` (stereo partly drawn) [Compound I-37, (S)-N1-ethyl-N6-(1-(2-(2-adamantylamino)-2-oxoethyl)-2-oxo-1,2-dihydropyridin-3-yl)-5-(3-methyl-1H-indole-2-carboxamido)-2-oxohexanediamide], for which the apparent permeability (Papp) in data set [1] was 1 to 10 ×10⁻⁶ cm/s. Further, the IC50 in data set [2] is below 150 nM. Besides, the logD in data set [3] lay in the range of 3 to 5.

The molecule `CCNC(=O)C(=O)CC[C@H](NC(=O)c1nc(Br)cs1)C(=O)Nc1cccn(CC(=O)NC2C3CC4CC(C3)CC2C4)c1=O` (stereo partly drawn) [Compound I-50, (S)-2-(4-bromothiazole-2-carboxamido)-N6-ethyl-N1-(1-(2-(2-adamantylamino)-2-oxoethyl)-2-oxo-1,2-dihydropyridin-3-yl)-5-oxohexanediamide] yielded a Papp in data set [1] of 1 to 10 ×10⁻⁶ cm/s. Also, the IC50 in data set [2] is below 150 nM. Also, the pH-dependent lipophilicity (logD) in data set [3] fell in the range of 3 to 5.

Regarding `CCNC(=O)C(=O)CC[C@H](NC(=O)c1cncn1C)C(=O)Nc1cccn(CC(=O)NC23CC4CC(CC(C4)C2)C3)c1=O` [Compound I-1, (S)-N1-ethyl-N6-(1-(2-(1-adamantylamino)-2-oxoethyl)-2-oxo-1,2-dihydropyridin-3-yl)-5-(1-methyl-1H-imidazole-5-carboxamido)-2-oxohexanediamide], in data set [1], the Papp was below 1 ×10⁻⁶ cm/s. In addition, the IC50 in data set [2] lay in the range of 600 to 3500 nM. For the same molecule, in data set [3], the logD was below 1.

In data set [1], `CCNC(=O)C(=O)CC[C@H](NC(=O)c1cnc(Cl)n1C)C(=O)Nc1cccn(CC(=O)NC23CC4(C)CC(C)(CC(C)(C4)C2)C3)c1=O` [Compound I-29, (S)-2-(2-chloro-1-methyl-1H-imidazole-5-carboxamido)-N6-ethyl-N1-(1-(2-(3,5,7-trimethyl-1-adamantylamino)-2-oxoethyl)-2-oxo-1,2-dihydropyridin-3-yl)-5-oxohexanediamide] returned a Papp below 1 ×10⁻⁶ cm/s. Moreover, in data set [2], the IC50 is below 150 nM. The logD in data set [3] was 1 to 3.

`CCNC(=O)C(=O)CC[C@H](NC(=O)c1nc(Cl)sc1Cl)C(=O)Nc1cccn(CC(=O)NC2C3CC4CC(C3)CC2C4)c1=O` (stereo partly drawn) [Compound I-48, (S)-2-(2,5-dichlorothiazole-4-carboxamido)-N6-ethyl-N1-(1-(2-(2-adamantylamino)-2-oxoethyl)-2-oxo-1,2-dihydropyridin-3-yl)-5-oxohexanediamide] registered a Papp in data set [1] of 1 to 10 ×10⁻⁶ cm/s. Moreover, the IC50 in data set [2] was in the range of 150 to 600 nM. For the same molecule, the logD in data set [3] was 1 to 3.

`CCNC(=O)C(=O)CC[C@H](NC(=O)c1ccncc1)C(=O)Nc1cccn(CC(=O)NC23CCC(CC2)C3)c1=O` [Compound I-71, (S)-N1-(1-(2-((1s,4R)-bicyclo[2.2.1]heptan-1-ylamino)-2-oxoethyl)-2-oxo-1,2-dihydropyridin-3-yl)-N6-ethyl-2-(isonicotinamido)-5-oxohexanediamide] yielded a Papp in data set [1] below 1 ×10⁻⁶ cm/s. Moreover, the IC50 in data set [2] was in the range of 150 to 600 nM. For the same molecule, the logD in data set [3] is below 1.

The molecule `CCNC(=O)C(=O)CC[C@H](NC(=O)c1nc2ccccc2s1)C(=O)Nc1cccn(CC(=O)N[C@@H]2C[C@@H]3CC[C@H]2C3)c1=O` [Compound I-97, (S)-2-(benzo[d]thiazole-2-carboxamido)-N1-(1-(2-((1S,2R,4R)-bicyclo[2.2.1]heptan-2-ylamino)-2-oxoethyl)-2-oxo-1,2-dihydropyridin-3-yl)-N6-ethyl-5-oxohexanediamide] had a Papp in data set [1] of 1 to 10 ×10⁻⁶ cm/s. Moreover, the IC50 in data set [2] was in the range of 150 to 600 nM. In addition, the logD in data set [3] fell in the range of 1 to 3.

The molecule `CCNC(=O)C(=O)CC[C@H](NC(=O)c1oc(Br)cc1C)C(=O)Nc1cccn(CC(=O)NC2C3CC4CC(C3)CC2C4)c1=O` (stereo partly drawn) [Compound I-45, (S)-2-(5-bromo-3-methylfuran-2-carboxamido)-N6-ethyl-N1-(1-(2-(2-adamantylamino)-2-oxoethyl)-2-oxo-1,2-dihydropyridin-3-yl)-5-oxohexanediamide] yielded a Papp in data set [1] of 1 to 10 ×10⁻⁶ cm/s. In data set [2], the IC50 is below 150 nM. The logD in data set [3] was in the range of 3 to 5.

In data set [1], `CCNC(=O)C(=O)CC[C@H](NC(=O)c1cn(C2CCCC2)cn1)C(=O)Nc1cccn(CC(=O)NC23CC4CC(CC(CC)(C4)C2)C3)c1=O` [Compound I-19, (S)-2-(1-cyclopentyl-1H-imidazole-4-carboxamido)-N6-ethyl-N1-(1-(2-(3-ethyladamantane-1-amino)-2-oxoethyl)-2-oxo-1,2-dihydropyridin-3-yl)-5-oxohexanediamide] registered a Papp below 1 ×10⁻⁶ cm/s. Besides, the IC50 in data set [2] was 600 to 3500 nM. Further, the pH-dependent lipophilicity (logD) in data set [3] lay in the range of 3 to 5.

In turn, `CCNC(=O)C(=O)CC[C@H](NC(=O)c1sc(C(F)(F)F)nc1Br)C(=O)Nc1cccn(CC(=O)NC2C3CC4CC(C3)CC2C4)c1=O` (stereo partly drawn) [Compound I-41, (S)-2-(4-bromo-2-(trifluoromethyl)thiazole-5-carboxamido)-N6-ethyl-N1-(1-(2-(2-adamantylamino)-2-oxoethyl)-2-oxo-1,2-dihydropyridin-3-yl)-5-oxohexanediamide] came in with a Papp in data set [1] of 1 to 10 ×10⁻⁶ cm/s. Besides, in data set [2], the IC50 is below 150 nM. In addition, the logD in data set [3] lay in the range of 1 to 3.

Molecule `CCNC(=O)C(=O)CC[C@H](NC(=O)c1cncn1C)C(=O)Nc1cccn(CC(=O)NC23CC4CC(C)(CC(C)(C4)C2)C3)c1=O` [Compound I-4, (S)-N1-ethyl-N6-(1-(2-(3,5-dimethyladamantane-1-amino)-2-oxoethyl)-2-oxo-1,2-dihydropyridin-3-yl)-5-(1-methyl-1H-imidazole-5-carboxamido)-2-oxohexanediamide] registered a Papp in data set [1] below 1 ×10⁻⁶ cm/s. For the same molecule, in data set [2], the IC50 was below 150 nM. Also, the logD in data set [3] fell in the range of 1 to 3.

`CCNC(=O)C(=O)CC[C@H](NC(=O)c1cncn1C)C(=O)Nc1cccn(CC(=O)NC23CC4(C)CC(C)(CC(C)(C4)C2)C3)c1=O` [Compound I-28, (S)-N1-ethyl-N6-(1-(2-(3,5,7-trimethyl-1-adamantylamino)-2-oxoethyl)-2-oxo-1,2-dihydropyridin-3-yl)-5-(1-methyl-1H-imidazole-5-carboxamido)-2-oxohexanediamide] displayed a Papp in data set [1] below 1 ×10⁻⁶ cm/s. The half-maximal inhibitory concentration (IC50) in data set [2] is below 150 nM. For the same molecule, the logD in data set [3] was 1 to 3.

The molecule `CCNC(=O)C(=O)CC[C@H](NC(=O)c1oc2ccccc2c1Cl)C(=O)Nc1cccn(CC(=O)NC2C3CC4CC(C3)CC2C4)c1=O` (stereo partly drawn) [Compound I-32, (S)-2-(3-chlorobenzofuran-2-carboxamido)-N6-ethyl-N1-(1-(2-(2-adamantylamino)-2-oxoethyl)-2-oxo-1,2-dihydropyridin-3-yl)-5-oxohexanediamide] returned a Papp in data set [1] of 1 to 10 ×10⁻⁶ cm/s. The IC50 in data set [2] was below 150 nM. Also, in data set [3], the logD lay in the range of 3 to 5.

Turning to `CCNC(=O)C(=O)CC[C@H](NC(=O)c1c(C)ncn1C)C(=O)Nc1cccn(CC(=O)NC23CC4CC(CC(CC)(C4)C2)C3)c1=O` [Compound I-17, (S)-2-(1,4-dimethyl-1H-imidazole-5-carboxamido)-N6-ethyl-N1-(1-(2-(3-ethyladamantane-1-amino)-2-oxoethyl)-2-oxo-1,2-dihydropyridin-3-yl)-5-oxohexanediamide], in data set [1], the Papp is below 1 ×10⁻⁶ cm/s. For the same molecule, the IC50 in data set [2] is 600 to 3500 nM. Further, the logD in data set [3] is 1 to 3.

For `CCNC(=O)C(=O)CC[C@H](NC(=O)c1ccnn1C)C(=O)Nc1cccn(CC23CC4CC(CC(C4)C2)C3)c1=O` [Compound I-81, (S)-N1-(1-(1-adamantylmethyl)-2-oxo-1,2-dihydropyridin-3-yl)-N6-ethyl-2-(1-methyl-1H-pyrazole-5-carboxamido)-5-oxohexanediamide], the Papp in data set [1] was below 1 ×10⁻⁶ cm/s. Besides, the IC50 in data set [2] was in the range of 150 to 600 nM. In addition, the logD in data set [3] fell in the range of 1 to 3.
